Laboratory results from US11111259B2, “Acylsulfonamide derivatives for treating senescence-associated diseases and disorders” (Unity Biotechnology, Inc., priority 2015, dated 2021).

Columns and labels:
BCL-w = biological target: T1, BCL-w (Homo sapiens, UniProt Q92843); assay: BCL-binding assay (AlphaLISA competition, BIM peptide); conditions: 6xHis BCL-w with biotinylated BIM peptide, 24 hr incubation
T1 sequence (Q92843 1-193): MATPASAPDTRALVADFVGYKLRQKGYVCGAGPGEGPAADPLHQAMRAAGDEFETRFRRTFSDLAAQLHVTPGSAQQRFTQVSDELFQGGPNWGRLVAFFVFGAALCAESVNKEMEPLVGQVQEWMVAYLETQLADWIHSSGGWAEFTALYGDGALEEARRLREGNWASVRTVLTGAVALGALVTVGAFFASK
Experimental: (§1) Compounds were prepared as 400× DMSO stock solutions in a 1:4 dilution series then diluted […] in assay buffer (25 mM HEPES pH 7.5, 100 mM NaCl, 0.1% BSA, 0.005% Tween) immediately before use. Aliquots of 400 nM 6xHis-tagged BCL-xL, BCL-2, and BCL-w were thawed on ice and diluted to 0.4 (BCL-XL) or 0.8 (BCL-W and 2) nM in assay buffer. Aliquots of biotinylated BIM and BAD peptides were diluted in assay buffer to 120 and 60 nM respectively. Ten microliters of biotinylated peptide were added to wells of a 96-well PCR plate, followed by ten microliters of inhibitor, then ten microliters of BCL protein, BCL-XL with BAD and BCL-W/2 with BIM. The plates were sealed and incubated at room temperature. After 24 hr, 0.16 μg Anti-His conjugated AlphaLISA acceptor beads were added in 5 μL assay buffer. After one hour at room temperature, 0.16 μg AlphaScreen streptavidin donor beads were added in 5 μL assay buffer and plates were incubated an additional 30 min in the dark. Two 17 μL aliquots of each reaction were plated in a Perkin Elmer 384-well proxiplate, and plates were scanned for using a Perkin Elmer Enspire plate reader. Kd values were calculated in Prism Graph Pad using a one site competitive binding model and previously determined Kd values for each protein peptide pair. […]

BCL-2 = BCL-2 (Homo sapiens, UniProt P10415); assay: as above; conditions: 6xHis BCL-2 with biotinylated BIM peptide, 24 hr incubation
Sequence of BCL-2 (P10415 whole entry, species assumed): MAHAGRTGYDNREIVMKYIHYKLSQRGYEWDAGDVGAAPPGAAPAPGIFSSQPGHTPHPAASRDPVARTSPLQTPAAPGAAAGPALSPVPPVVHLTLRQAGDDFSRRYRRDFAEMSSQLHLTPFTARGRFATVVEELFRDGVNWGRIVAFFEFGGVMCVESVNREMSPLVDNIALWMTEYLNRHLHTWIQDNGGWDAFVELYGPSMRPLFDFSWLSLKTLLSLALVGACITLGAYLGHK
Experimental: as §1

[1] = system: IMR-90 SnC (irradiated senescent IMR90 cells); assay: Senolysis assay (CellTiter-Glo viability); format: cell-based, human; conditions: for EC50: Homo sapiens, IMR-90, light or radiation study, 72 h, X-ray irradiated senescent IMR90 cells, viability three days after compound addition; for SI (ratio of EC50 of non-senescent cells to EC50 of senescent cells): IMR90 non-senescent vs senescent cells
Experimental: IMR90 cells are maintained in DMEM supplemented with 10% FBS. To prepare a senescent population, cells were trypsinized, diluted to 50,000 per mL, and irradiated with 10-15 Gy of X-ray irradiation. Irradiated cells were plated at 5000 cells per well in one third of a 96-well plate and maintained for two weeks prior to the assay. Four days prior to the assay, non-senescent IMR90s were plated at 2500 per well in the second third of the plate. One day prior to the assay, 2500 non-senescent cells were plated in the final third of the plate. Compounds were prepared as a 200×DMSO dilution series then diluted to 1× in media immediately before adding to cells. Three days after compound addition, cell viability was measured using CellTiter-Glo reagent from Promega. Viability was calculated relative to a DMSO control and EC50 values are calculated in Prism GraphPad. […] The selectivity (SI) of the compounds described herein is a ratio of the EC50 of non-senescent cells to the EC50 of senescent cells. The SI of the compounds described herein is 10 or above for “A” selectivity, between 2 and 10 for “B” selectivity or 2 or less for “C” selectivity.

BCL-xL = BCL-xL (Homo sapiens, UniProt Q07817); assay: BCL-binding assay (AlphaLISA competition, BAD peptide); conditions: 6xHis BCL-xL with biotinylated BAD peptide, 24 hr incubation
Sequence of BCL-xL (Q07817 whole entry, species assumed): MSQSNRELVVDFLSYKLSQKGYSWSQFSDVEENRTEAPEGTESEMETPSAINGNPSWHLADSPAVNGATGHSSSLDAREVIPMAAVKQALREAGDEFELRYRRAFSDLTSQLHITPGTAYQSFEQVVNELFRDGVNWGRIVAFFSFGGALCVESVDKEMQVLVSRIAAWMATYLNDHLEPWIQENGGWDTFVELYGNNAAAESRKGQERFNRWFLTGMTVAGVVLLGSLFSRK
Experimental: as §1

| SMILES | Kd (BCL-w) [nM] | Kd (BCL-2) [nM] | EC50 [1] [nM] | SI (ratio of EC50 of non-senescent cells to EC50 of senescent cells) [1] | Kd (BCL-xL) [nM] |
| --- | --- | --- | --- | --- | --- |
| COP(=O)(CN1CCN(CC[C@H](CSc2ccccc2)Nc2ccc(S(=O)(=O)NC(=O)c3ccc(N4CCN(CC5=C(c6ccc(Cl)cc6)CCC(C)(C)C5)CC4)cc3)cc2S(=O)(=O)C(F)(F)F)CC1)OC [Compound 16] | 1 to 10 | < 1 | < 1000 | A (10 or above) | < 1 |
| CCOP(=O)(CCCN1CCN(CC[C@H](CSc2ccccc2)Nc2ccc(S(=O)(=O)NC(=O)c3ccc(N4CCN(CC5=C(c6ccc(Cl)cc6)CCC(C)(C)C5)CC4)cc3)cc2S(=O)(=O)C(F)(F)F)CC1)OCC [Compound 23] | 1 to 10 | < 1 | < 1000 | A (10 or above) | < 1 |
| COP(=O)(CCCN1CCN(CC[C@H](CSc2ccccc2)Nc2ccc(S(=O)(=O)NC(=O)c3ccc(N4CCN(CC5=C(c6ccc(Cl)cc6)CCC(C)(C)C5)CC4)cc3)cc2S(=O)(=O)C(F)(F)F)CC1)OC [Compound 24] | 1 to 10 | < 1 | < 1000 | A (10 or above) | < 1 |
| CC1(C)CCC(c2ccc(Cl)cc2)=C(CN2CCN(c3ccc(C(=O)NS(=O)(=O)c4ccc(N[C@H](CCN5CCN(CCCP(=O)(Oc6ccccc6)Oc6ccccc6)CC5)CSc5ccccc5)c(S(=O)(=O)C(F)(F)F)c4)cc3)CC2)C1 [Compound 25] | > 50 | < 1 | > 10000 | C (2 or less) | 1 to 10 |
| CCOP(=O)(CN1CCN(CC[C@H](CSc2ccccc2)Nc2ccc(S(=O)(=O)NC(=O)c3ccc(N4CCN(CC5=C(c6ccc(Cl)cc6)CCC(C)(C)C5)CC4)cc3)cc2S(=O)(=O)C(F)(F)F)CC1)OC(C)(C)C (stereo partly drawn) [Compound 26] | > 50 | > 50 | > 10000 |  | 10 to 50 |
| CC(C)OP(=O)(CCCN1CCN(CC[C@H](CSc2ccccc2)Nc2ccc(S(=O)(=O)NC(=O)c3ccc(N4CCN(CC5=C(c6ccc(Cl)cc6)CCC(C)(C)C5)CC4)cc3)cc2S(=O)(=O)C(F)(F)F)CC1)OC(C)C [Compound 27] | 1 to 10 | < 1 | > 10000 | C (2 or less) | < 1 |
| CCOP(=O)(CN1CCN(CC[C@H](CSc2ccccc2)Nc2ccc(S(=O)(=O)NC(=O)c3ccc(N4CCN(CC5=C(c6ccc(Cl)cc6)CCC(C)(C)C5)CC4)cc3)cc2S(=O)(=O)C(F)(F)F)CC1)OCOC(=O)C(C)(C)C (stereo partly drawn) [Compound 28, (((4-((R)-3-((4-(N-(4-(4-((4′-Chloro-4,4-dimethyl-3,4,5,6-tetrahydro-[1,1′-biphenyl]-2-yl)methyl)piperazin-1-yl)benzoyl)sulfamoyl)-2-((trifluoromethyl)sulfonyl)phenyl)amino)-4-(phenylthio)butyl)piperazin-1-yl)methyl)(ethoxy)phosphoryl)oxy)methyl pivalate] | 10 to 50 | < 1 | < 1000 | B (between 2 and 10) | 1 to 10 |
| CCOP(=O)(CN1CCN(CC[C@H](CSc2ccccc2)N(c2ccc(S(=O)(=O)NC(=O)c3ccc(N4CCN(CC5=C(c6ccc(Cl)cc6)CCC(C)(C)C5)CC4)cc3)cc2S(=O)(=O)C(F)(F)F)S(C)(=O)=O)CC1)OCC [Compound 29] | > 50 | 10 to 50 | 1000 to 10000 | C (2 or less) | 10 to 50 |
| CCOP(=O)(O)CN1CCN(CC[C@H](CSc2ccccc2)N(c2ccc(S(=O)(=O)NC(=O)c3ccc(N4CCN(CC5=C(c6ccc(Cl)cc6)CCC(C)(C)C5)CC4)cc3)cc2S(=O)(=O)C(F)(F)F)S(C)(=O)=O)CC1 [Compound 30] | > 50 | 1 to 10 | 1000 to 10000 |  | 1 to 10 |
| CCOP(=O)(O)CCCN1CCN(CC[C@H](CSc2ccccc2)Nc2ccc(S(=O)(=O)NC(=O)c3ccc(N4CCN(CC5=C(c6ccc(Cl)cc6)CCC(C)(C)C5)CC4)cc3)cc2S(=O)(=O)C(F)(F)F)CC1 [Compound 31] | 1 to 10 | < 1 | > 10000 |  | < 1 |
| CC1(C)CCC(c2ccc(Cl)cc2)=C(CN2CCN(c3ccc(C(=O)NS(=O)(=O)c4ccc(N[C@H](CCN5CCN(CCCP(=O)(O)O)CC5)CSc5ccccc5)c(S(=O)(=O)C(F)(F)F)c4)cc3)CC2)C1 [Compound 32] | 10 to 50 | < 1 | > 10000 |  | < 1 |
| CCOP(=O)(CCCN1CCN(CC[C@H](CSc2ccccc2)Nc2ccc(S(=O)(=O)NC(=O)c3ccc(N4CCN(CC5=C(c6ccc(Cl)cc6)CCC(C)(C)C5)CC4)cc3)cc2S(=O)(=O)C(F)(F)F)CC1)OCOC(=O)C(C)(C)C (stereo partly drawn) [Compound 33] | 1 to 10 | < 1 | > 10000 | B (between 2 and 10) | < 1 |
| CCOP(=O)(CN1CCN(CC(CSc2ccccc2)Nc2ccc(S(=O)(=O)NC(=O)c3ccc(N4CCN(CC5=C(c6ccc(Cl)cc6)CCC(C)(C)C5)CC4)cc3)cc2S(=O)(=O)C(F)(F)F)CC1)OCC (stereo not drawn) [Compound 34] | > 50 | < 1 | > 10000 | C (2 or less) | 1 to 10 |
| CCOP(=O)(CCN1CCN(CC(CSc2ccccc2)Nc2ccc(S(=O)(=O)NC(=O)c3ccc(N4CCN(CC5=C(c6ccc(Cl)cc6)CCC(C)(C)C5)CC4)cc3)cc2S(=O)(=O)C(F)(F)F)CC1)OCC (stereo not drawn) [Compound 35, Diethyl (2-(4-(2-((4-(N-(4-(4-((4′-chloro-4,4-dimethyl-3,4,5,6-tetrahydro-[1,1′-biphenyl]-2-yl)methyl)piperazin-1-yl)benzoyl)sulfamoyl)-2-((trifluoromethyl)sulfonyl)phenyl)amino)-3-(phenylthio)propyl)piperazin-1-yl)ethyl)phosphonate] | > 50 | < 1 | 1000 to 10000 | C (2 or less) | 1 to 10 |
| CCOP(=O)(CCCN1CCN(CC[C@H](CSc2ccccc2)Nc2ccc(S(=O)(=O)NC(=O)c3ccc(N4CCN(CC5=C(c6ccc(Cl)cc6)CCC(C)(C)C5)CC4)cc3)cc2S(=O)(=O)C(F)(F)F)CC1)OCOC(=O)OC(C)C (stereo partly drawn) [Compound 36] | 10 to 50 | < 1 | 1000 to 10000 | B (between 2 and 10) | < 1 |
| CCOP(=O)(CCCN1CCN(CC[C@H](CSc2ccccc2)Nc2ccc(S(=O)(=O)NC(=O)c3ccc(N4CCN(CC5=C(c6ccc(Cl)cc6)CCC(C)(C)C5)CC4)cc3)cc2S(=O)(=O)C(F)(F)F)CC1)OCOC(C)=O (stereo partly drawn) [Compound 37] | 1 to 10 | < 1 | 1000 to 10000 | B (between 2 and 10) | < 1 |
| CCOP(=O)(CCN1CCN(CC[C@H](CSc2ccccc2)Nc2ccc(S(=O)(=O)NC(=O)c3ccc(N4CCN(CC5=C(c6ccc(Cl)cc6)CCC(C)(C)C5)CC4)cc3)cc2S(=O)(=O)C(F)(F)F)CC1)OCOC(=O)C(C)(C)C (stereo partly drawn) [Compound 38] | 10 to 50 | < 1 | 1000 to 10000 | A (10 or above) | < 1 |
